Measured values published in patent US20260132115A1, “SUBSTITUTED 3-FLUOROBENZENEPROPANOATE COMPOUND AND PREPARATION METHOD THEREFOR, PHARMACEUTICAL COMPOSITION THEREOF, AND USE THEREOF” (TIANJIN GUDUI BIO-PHARM CO., LTD., priority 2022, published 2026).
Like-named read-outs stand apart in the source and are kept apart here. Marks after values point to notes of the source that are not given here.

Tests used:
[1] = tested on: λ-Carrageenan-Induced Rat Toe Swelling; experiment: Anti-inflammatory effect on λ-carrageenan-induced rat toe swelling; type: in vivo, SD rats; conditions: 10 mg/kg intraperitoneal, 1 h before 1% λ-carrageenan; for inhibition in vivo at 10 mg/kg: Rattus norvegicus, ip
Method: Experimental method: Male SD rats weighing 150-160 g were randomly grouped, with 10 rats in each group. The rats were intraperitoneally injected with saline, the compounds of the present disclosure, and the control drug flurbiprofen or flurbiprofen axetil respectively, all of which were administered at a dose of 10 mg/kg and a dosing volume of 10 μL/g. At 1 h after administration, 100 μL of 1% λ-carrageenan was injected into the right hind toe of each rat to induce inflammation. Afterwards, the paw volume was measured every 1 h using a paw volume meter to calculate the swelling inhibition rate.

[2] = tested on: Dry Yeast-Induced Rat Fever Models; experiment: Antipyretic effect on dry yeast-induced fever in rats; type: in vivo, SD rats; conditions: rectal temperature, 10 mg/kg intraperitoneal, 20 min before 20% dry yeast s.c.
Method: Experimental method: Male SD rats, aged 4 weeks, were randomly grouped, with 10 rats in each group. […] The rats were intraperitoneally injected with saline, the compounds of the present disclosure or the control drug flurbiprofen respectively, all of which were administered at a dose of 10 mg/kg and a dosing volume of 10 μL/g. At 20 min after administration, 20% active dry yeast suspension was injected subcutaneously. After modeling, the rectal temperatures were measured at 4 h and 8 h.

U87 = experiment: Antitumor potency, MTT method, U87; type: cell-based; conditions: Homo sapiens, U-87 MG, 72 h incubation
Method: (§1) Experimental method: The antitumor potency was tested by the MTT method. Tumor cells at the logarithmic phase were collected. The concentration of the cell suspension was adjusted. 100 μL of the cell suspension was added to each well. Cell plating was carried out and the cell density was adjusted to 1000 to 10000/well (the marginal wells were filled with sterile PBS). The cells were incubated at 5% CO2 and 37° C. until the cells adhered to the wall (96-well flat-bottomed plate). Drugs of different concentration gradients were added, 100 μL per well. Four replicates were set up. Under the conditions of 5% CO2 and 37° C., the cells were incubated for 72 h and observed under an inverted microscope. The prepared MTT solution (5 mg/mL) was added to the 96-well plate, 20 μL per well, mixed well, and incubated for 4 h under the conditions of 37° C. and 5% CO2. Afterwards, the liquid in the plate was discarded. 150 μL of DMSO was added to each well and oscillated for 3 min on a microplate reader. The OD value (optical density) was detected at 490 nm.
(§2) The inhibition rate of the drug against the tumor cell growth was calculated according to the following formula: […]

MM.1S = experiment: Antitumor potency, MTT method, MM.1S; type: cell-based; conditions: Homo sapiens, MM1.S, 72 h incubation
Method: as §1, §2

Eca-109 = experiment: Antitumor potency, MTT method, Eca-109; type: cell-based; conditions: Homo sapiens, 72 h incubation
Method: as §1, §2

NUGC-4 = experiment: Antitumor potency, MTT method, NUGC-4; type: cell-based; conditions: Homo sapiens, 72 h incubation
Method: as §1, §2

rats with CIA = experiment: Analgesic and anti-inflammatory effects on collagen-induced rheumatoid arthritis (CIA) in rats; type: in vivo, Lewis rats; conditions: for paw volume effect as compared to the flurbiprofen group: left hind limb, 14-day intervention, 10 mg/kg (FIG. 3); for MWT effect as compared to the flurbiprofen group: left lower limb, 13-day intervention, 10 mg/kg (FIG. 4)
Method: Experimental method: Female Lewis rats, aged 6-8 weeks, were randomly grouped, with 8 rats in each group. Under the ambient temperature of 20.5° C. to 24.5° C. and the humidity of 40% to 70%, the light period was 12-h bright and 12-h dark. Type II collagen was mixed with Freund's incomplete adjuvant (IFA) at a ratio of 1:1 and fully emulsified on ice before use. 100 μL of the mixed solution was injected intradermally at the part 2 to 3 cm from the base of the rat tail, and 50 μL of the mixed solution was injected into the bases of both hind limbs separately. The rats in the blank control group were injected with an equal volume of saline. IFA was used for re-immunization 7 days later. […] Rats with a total score of more than 2 on both hind limbs were selected and randomly divided into a model group, a flurbiprofen group, a compound 33 group, a compound 2 group, a compound 13 group, a compound 20 group, and a compound 35 group according to the body weight, score and paw volume, and furthermore a blank control group was set up, with 8 rats in each group. The dosing […] was […], and the dosing time was 14 days. A corresponding volume of solvent was administered in the model group and the blank control group.
Test indicators: body weight, arthritis score, hind limb paw volume, and mechanical foot threshold (MWT).
Standard for arthritis score: 0=normal; 1=erythema and slight swelling observed at the ankle joint; 2=erythema and slight swelling observed from the ankle joint to the metatarsal joint or the metacarpal joint; 3=erythema and moderate swelling observed from the ankle joint to the metatarsophalangeal joint or the metacarpal joint; 4=erythema and severe swelling observed from the ankle joint to the metatarsal joint; the total score of all (four) paws was calculated, and the sum of the arthritis indices was up to 16 per rat.

H460 = experiment: Antitumor potency, MTT method, H460; type: cell-based; conditions: Homo sapiens, NCI-H460, 72 h incubation
Method: as §1, §2

U251 = experiment: Antitumor potency, MTT method, U251; type: cell-based; conditions: Homo sapiens, U-251, 72 h incubation
Method: as §1, §2

[3] = In vivo pharmacokinetic assay in rats (gavage, plasma); conditions: female, Sprague Dawley, po, prototype drug in rat plasma, dose equimolar to 50 mg/kg flurbiprofen
Method: Experimental method: Adult female Sprague Dawley rats, aged 8-10 weeks and weighing 200±20 g, were randomly grouped, with 3 rats in each group. Rats in each of the groups were administered by gavage at a dose of 50 mg/kg of flurbiprofen and an equimolar dose of other example compounds to 50 mg/kg of flurbiprofen, respectively. After gavage administration, blood was collected at 0.0833 […], and 24 h into sodium heparin anticoagulant tubes, respectively. The blood was collected by the following method: 250 μL of blood were collected from the orbital venous plexuses of the rats. After blood collection, the blood samples were centrifuged at 12000 rpm in a centrifuge for 5 min. All plasma was aspirated into a 1.5-mL centrifuge tube, and the plasma was stored in a refrigerator at -80° C. The pharmacokinetic parameters were determined by the external standard curve method. Sample processing: after the cryopreserved samples were removed and restored to room temperature, the samples were vortexed evenly and then diluted two folds with methanol; the sample solution was diluted 5 folds by adding a mixed extractant of 0.5% formic acid-containing acetonitrile:methanol=7:3, and subjected to vortex oscillation for 1 min. Subsequently, the resultant was centrifuged at 4° C. and 12000 rpm for 10 min, and then 5 μL of the supernatant was measured for assay. The pharmacokinetic parameters in the Examples were calculated using the Winnonlin software.

[4] = 6 h, read-out: Toe Swelling Inhibition Rate at 6 h
[5] = 24 h, read-out: Toe Swelling Inhibition Rate at 24 h

Compound | inhibition in vivo at 10 mg/kg [1, 4] | inhibition in vivo at 10 mg/kg [1, 5] | Temp. at 4 h After Dosing [2] | Temp. at 8 h After Dosing [2] | also measured
CC(C(=O)OCOC(=O)N1C[C@@H](C)O[C@@H](C)C1)c1ccc(-c2ccccc2)c(F)c1 (stereo partly shown) [Compound 3] | 45.3% | 28.1% |  |  | 
CC(C(=O)OCOC(=O)N[C@@H](Cc1ccc(O)cc1)C(=O)O)c1ccc(-c2ccccc2)c(F)c1 (stereo partly shown) [Compound 7] | 47.9% | 21.5% |  |  | 
CC(OC(=O)C(C)c1ccc(-c2ccccc2)c(F)c1)OC(=O)N1CCOCC1 (stereo not shown) [Compound 9] |  |  | 37.17 ± 0.23 °C | 37.10 ± 0.37 °C | 
CCCN(CCC)C(=O)OCOC(=O)C(C)c1ccc(-c2ccccc2)c(F)c1 (stereo not shown) [Compound 13] | 46% | 37% | 37.10 ± 0.172 °C | 37.32 ± 0.27 °C | IC50 (U87): 80.5 µM; IC50 (MM.1S): 5.39 µM; IC50 (Eca-109): 30.7 µM; IC50 (NUGC-4): 40.1 µM; paw volume effect as compared to the flurbiprofen group (rats with CIA): better effects; MWT effect as compared to the flurbiprofen group (rats with CIA): slightly better or better effects; IC50 (H460): 47.9 µM; IC50 (U251): 73.9 µM
CC(=O)N1CCN(C(=O)OCOC(=O)C(C)c2ccc(-c3ccccc3)c(F)c2)CC1 (stereo not shown) [Compound 15] |  |  | 37.16 ± 0.16 °C | 37.27 ± 0.24 °C | 
CC(C(=O)OCOC(=O)N1CCC(O)CC1)c1ccc(-c2ccccc2)c(F)c1 (stereo not shown) [Compound 20] | 52.7% | 45% | 37.09 ± 0.25 °C | 37.27 ± 0.26 °C | IC50 (U87): 54.6 µM; IC50 (MM.1S): 42.8 µM; IC50 (Eca-109): 33.2 µM; IC50 (NUGC-4): 50.4 µM; paw volume effect as compared to the flurbiprofen group (rats with CIA): better effects; MWT effect as compared to the flurbiprofen group (rats with CIA): slightly better or better effects; IC50 (H460): 35.9 µM; IC50 (U251): 5.84 µM
CC(C(=O)OCOC(=O)N(CCO)CCO)c1ccc(-c2ccccc2)c(F)c1 (stereo not shown) [Compound 25] |  |  |  |  | AUC [3]: 63000 ± 11800 ng·h/mL; Cmax [3]: 3860 ± 178 ng/mL; half-life ([3]; read-out: Prototype Drug t1/2 (converted)): 8.1 ± 4.42 h
CCCN(CCC)C(=O)OCOC(=O)[C@@H](C)c1ccc(-c2ccccc2)c(F)c1 [Compound 29] | 45.8% | 29.6% | 37.12 ± 0.13 °C | 37.35 ± 0.23 °C | 
C[C@H](C(=O)OCOC(=O)N1CCC(O)CC1)c1ccc(-c2ccccc2)c(F)c1 [Compound 31] | 45.4% | 31.9% | 37.12 ± 0.30 °C | 37.22 ± 0.30 °C | 
CC(=O)Oc1ccccc1C(=O)OCOC(=O)C(C)c1ccc(-c2ccccc2)c(F)c1 (stereo not shown) [Compound 36] | 45.3% | 28.1% | 37.38 ± 0.31 °C | 37.24 ± 0.16 °C | 
CC(C(=O)OCOC(=O)c1ccc(N(C)C)cc1O)c1ccc(-c2ccccc2)c(F)c1 (stereo not shown) [Compound 41] | 43% | 32.2% | 37.19 ± 0.35 °C | 37.30 ± 0.31 °C | 
COc1cc(COC(=O)C(C)c2ccc(-c3ccccc3)c(F)c2)cc(OC)c1 (stereo not shown) [Compound 47] | 49.3% | 33.9% | 37.17 ± 0.27 °C | 37.26 ± 0.22 °C | 
CC(C(=O)OCc1ccccc1O)c1ccc(-c2ccccc2)c(F)c1 (stereo not shown) [Compound 48] | 44.1% | 33.9% | 37.11 ± 0.23 °C | 37.21 ± 0.25 °C | 
CC(C(=O)OCOC(=O)CCCCCN1C(=O)C=CC1=O)c1ccc(-c2ccccc2)c(F)c1 (stereo not shown) [Compound 53] | 69% | 75.2% | 37.04 ± 0.20 °C | 37.02 ± 0.30 °C | 
CC(C(=O)OCOC(=O)CCN1C(=O)CCC1=O)c1ccc(-c2ccccc2)c(F)c1 (stereo not shown) [Compound 55] | 36.7% | 41.4% |  |  | 
CC(C(=O)OCOC(=O)CCCN1C(=O)C=CC1=O)c1ccc(-c2ccccc2)c(F)c1 (stereo not shown) [Compound 57] | 43.8% | 43.4% |  |  | 
CCCCN(CCCC)C(=O)OCOC(=O)C(C)c1ccc(-c2ccccc2)c(F)c1 (stereo not shown) [Compound 65] | 43.1% | 43.8% | 37.10 ± 0.20 °C | 37.24 ± 0.23 °C | 
CCCCCCN(C)C(=O)OCOC(=O)C(C)c1ccc(-c2ccccc2)c(F)c1 (stereo not shown) [Compound 67] | 48.6% | 57.3% | 37.17 ± 0.19 °C | 37.16 ± 0.20 °C | 
CC(C)CN(CC(C)C)C(=O)OCOC(=O)C(C)c1ccc(-c2ccccc2)c(F)c1 (stereo not shown) [Compound 69] | 65.9% | 70.6% | 37.09 ± 0.18 °C | 37.13 ± 0.27 °C | 
CC(C(=O)O)c1ccc(-c2ccccc2)c(F)c1 (stereo not shown) [Flurbiprofen, reference compound] | 35.5% | 29.9% | 37.49 ± 0.43 °C | 37.67 ± 0.39 °C | IC50 (U87): > 100 µM; IC50 (MM.1S): > 100 µM; IC50 (Eca-109): 85.5 µM; IC50 (NUGC-4): > 100 µM; IC50 (H460): > 100 µM; IC50 (U251): 34.1 µM
Flurbiprofen axetil [reference compound] |  |  |  |  | Toe Swelling Inhibition Rate at 6 h ([1]; 6 h): 35.53%**; Toe Swelling Inhibition Rate at 24 h ([1]; 24 h): 22.85%**
